In patent US4065460A, “4,5,6,7-Tetrahydro-thieno[3,2-c]-pyridine derivatives and process for their preparation” (Parcor, priority 1975, dated 1977):
Like-named read-outs stand apart in the source and are kept apart here.

Columns and labels:
[1] = Acute intravenous toxicity (LD50, method according to MILLER and TAINTER); conditions: mouse, in vivo, Swiss mice, read-out: LD50 /24hrs/kg of the animal
[2] = test system: carrageenin-induced edema; test: Localized carrageenin-induced edema method (anti-inflammatory action); type: in vivo; conditions: Rattus norvegicus, po, rats, 100 mg/kg orally (1 hour prior, simultaneously, 1 hour and 2.5 hours after)
Protocol: a. Localized carrageenin-induced edema method.
0.1 ml of a 1% carrageenin solution is injected at time 0 in the metatarsal flexor muscles of the right hind limb of rats. The animals of the treated group are administered orally, additionally, 100 mg/kg of the test derivative, respectively 1 hour prior to and then simultaneously with the phlogogenic agent, and then 1 hour and 2.5 hours thereafter. The determinations effected with a ROCH micrometer at times 0, 1 hour, 2 hrs, 3 hrs and 5 hrs after carrageenin administration make it possible to determine, as a function of time, the percent anti-inflammatory activity.

[3] = test system: Ovalbumin-induced systemic edema; test: Ovalbumin-induced systemic edema method (anti-inflammatory action); type: in vivo; conditions: Rattus norvegicus, po, rats, 100 mg/kg orally (1 hour prior and simultaneously), with respect to control group
Protocol: b. Ovalbumin-induced systemic edema method
Rats are administered a simultaneous intraperitoneal injection of 1 ml ovalbumin and 0.5 ml of a 1% Evans Blue solution. The animals of the treated group are additionally administered orally 100 mg/kg of the test derivative, one hour prior to ovalbumin administration and then simultaneously with said ovalbumin administration. The intensity of the phenomenon thus induced is rated according to a scale from 1 to 5, according to the progress of the inflammatory syndrome. The measurements are effected after 2 hours and after 3 hours. Thus are determined the mean intensity of the edema and the percent decrease of the edema reaction with respect to the control group.

[4] = test system: mechanical stimulation (pressure forceps at the base of the tail); test: Antalgic action, mechanical stimulation method according to Haffner; type: in vivo; conditions: mouse, 100 mg/kg oral
Protocol: This method comprises placing a pressure forceps at the base of the tail of a mouse and recording the number of bites self-inflicted by the animal in its endeavour to remove the forceps. The decrease of the number of bites prior to and subsequently to oral administration of the test compound at a dosage of 100 mg/kg provides a measure of the antalgic activity of the derivatives of this invention.

[5] = after 1 hour, read-out: Percent anti-inflammatory activity after 1 hour
[6] = after 2 hours, read-out: Percent anti-inflammatory activity after 2 hours
[7] = after 5 hours, read-out: Percent anti-inflammatory activity after 5 hours
[8] = after 2 hrs, read-out: Percent decrease of the edema reaction after 2 hrs
[9] = after 3 hrs, read-out: Percent decrease of the edema reaction after 3 hrs
[10] = 0.5 h, after 30 min., read-out: mean percent antalgia after 30 min.
[11] = after 1 hr, read-out: mean percent antalgia after 1 hr
[12] = after 2 hrs, read-out: mean percent antalgia after 2 hrs
[13] = after 3 hrs, read-out: mean percent antalgia after 3 hrs

CCOC1(C)CNCc2ccsc21 (stereo not shown) [Derivative 6, 7-Ethoxy-7-methyl-4,5,6,7-tetrahydro-thieno[3,2-c]-pyridine]
LD50 at 24 h [1]: 224 mg/kg
inhibition in vivo at 100 mg/kg [2, 5]: 40%
inhibition in vivo at 100 mg/kg [2, 6]: 49%
inhibition in vivo at 100 mg/kg [2, 7]: 61%
inhibition in vivo at 100 mg/kg [3, 8]: 44%
inhibition in vivo at 100 mg/kg [3, 9]: 58%
inhibition in vivo at 100 mg/kg [4, 10]: 66%
inhibition in vivo at 100 mg/kg [4, 11]: 60%
inhibition in vivo at 100 mg/kg [4, 12]: 55%
inhibition in vivo at 100 mg/kg [4, 13]: 48%

COC1c2sccc2CNC1C (stereo not shown) [Derivative 7, 7-Methoxy-6-methyl-4,5,6,7-tetrahydro-thieno[3,2-c]-pyridine]
LD50 at 24 h [1]: 210 mg/kg
inhibition in vivo at 100 mg/kg [2, 5]: 36%
inhibition in vivo at 100 mg/kg [2, 6]: 48%
inhibition in vivo at 100 mg/kg [2, 7]: 62%
inhibition in vivo at 100 mg/kg [3, 8]: 47%
inhibition in vivo at 100 mg/kg [3, 9]: 58%
inhibition in vivo at 100 mg/kg [4, 10]: 70%
inhibition in vivo at 100 mg/kg [4, 11]: 65%
inhibition in vivo at 100 mg/kg [4, 12]: 61%
inhibition in vivo at 100 mg/kg [4, 13]: 53%

CCOC1CNCc2ccsc21 (stereo not shown) [Derivative 2, 7-Ethoxy-4,5,6,7-tetrahydro-thieno[3,2-c]-pyridine]
LD50 at 24 h [1]: 145 mg/kg
inhibition in vivo at 100 mg/kg [2, 5]: 36%
inhibition in vivo at 100 mg/kg [2, 6]: 44%
inhibition in vivo at 100 mg/kg [2, 7]: 52%
inhibition in vivo at 100 mg/kg [3, 8]: 48%
inhibition in vivo at 100 mg/kg [3, 9]: 59%
inhibition in vivo at 100 mg/kg [4, 10]: 71%
inhibition in vivo at 100 mg/kg [4, 11]: 66%
inhibition in vivo at 100 mg/kg [4, 12]: 62%
inhibition in vivo at 100 mg/kg [4, 13]: 59%

CC(C)COC1CNCc2ccsc21 (stereo not shown) [Derivative 3, 7-Isobutoxy-4,5,6,7-tetrahydro-thieno[3,2-c]-pyridine]
LD50 at 24 h [1]: 180 mg/kg
inhibition in vivo at 100 mg/kg [2, 5]: 39%
inhibition in vivo at 100 mg/kg [2, 6]: 48%
inhibition in vivo at 100 mg/kg [2, 7]: 58%
inhibition in vivo at 100 mg/kg [3, 8]: 51%
inhibition in vivo at 100 mg/kg [3, 9]: 63%
inhibition in vivo at 100 mg/kg [4, 10]: 68%
inhibition in vivo at 100 mg/kg [4, 11]: 60%
inhibition in vivo at 100 mg/kg [4, 12]: 55%
inhibition in vivo at 100 mg/kg [4, 13]: 48%

COC1CNCc2ccsc21 (stereo not shown) [Derivative 1, 7-Methoxy-4,5,6,7-tetrahydro-thieno[3,2-c]-pyridine]
LD50 at 24 h [1]: 262 mg/kg
inhibition in vivo at 100 mg/kg [2, 5]: 35%
inhibition in vivo at 100 mg/kg [2, 6]: 41%
inhibition in vivo at 100 mg/kg [2, 7]: 50%
inhibition in vivo at 100 mg/kg [3, 8]: 51%
inhibition in vivo at 100 mg/kg [3, 9]: 60%
inhibition in vivo at 100 mg/kg [4, 10]: 75%
inhibition in vivo at 100 mg/kg [4, 11]: 63%
inhibition in vivo at 100 mg/kg [4, 12]: 59%
inhibition in vivo at 100 mg/kg [4, 13]: 51%

COC1c2sccc2CNC1c1ccccc1 (stereo not shown) [Derivative 10, 7-Methoxy-6-phenyl-4,5,6,7-tetrahydro-thieno[3,2-c]-pyridine]
LD50 at 24 h [1]: 195 mg/kg
inhibition in vivo at 100 mg/kg [2, 5]: 37%
inhibition in vivo at 100 mg/kg [2, 6]: 50%
inhibition in vivo at 100 mg/kg [2, 7]: 56%
inhibition in vivo at 100 mg/kg [3, 8]: 48%
inhibition in vivo at 100 mg/kg [3, 9]: 57%
inhibition in vivo at 100 mg/kg [4, 10]: 73%
inhibition in vivo at 100 mg/kg [4, 11]: 66%
inhibition in vivo at 100 mg/kg [4, 12]: 60%
inhibition in vivo at 100 mg/kg [4, 13]: 53%

CCOC1c2sccc2CNC1C (stereo not shown) [Derivative 8, 7-Ethoxy-6-methyl-4,5,6,7-tetrahydro-thieno[3,2-c]-pyridine]
LD50 at 24 h [1]: 129 mg/kg
inhibition in vivo at 100 mg/kg [2, 5]: 38%
inhibition in vivo at 100 mg/kg [2, 6]: 53%
inhibition in vivo at 100 mg/kg [2, 7]: 61%
inhibition in vivo at 100 mg/kg [3, 8]: 44%
inhibition in vivo at 100 mg/kg [3, 9]: 56%
inhibition in vivo at 100 mg/kg [4, 10]: 71%
inhibition in vivo at 100 mg/kg [4, 11]: 65%
inhibition in vivo at 100 mg/kg [4, 12]: 59%
inhibition in vivo at 100 mg/kg [4, 13]: 50%

COC1(C)CNCc2ccsc21 (stereo not shown) [Derivative 5, 7-Methoxy-7-methyl-4,5,6,7-tetrahydro-thieno[3,2-c]-pyridine]
LD50 at 24 h [1]: 138 mg/kg
inhibition in vivo at 100 mg/kg [2, 5]: 39%
inhibition in vivo at 100 mg/kg [2, 6]: 49%
inhibition in vivo at 100 mg/kg [2, 7]: 57%
inhibition in vivo at 100 mg/kg [3, 8]: 49%
inhibition in vivo at 100 mg/kg [3, 9]: 60%
inhibition in vivo at 100 mg/kg [4, 10]: 67%
inhibition in vivo at 100 mg/kg [4, 11]: 61%
inhibition in vivo at 100 mg/kg [4, 12]: 55%
inhibition in vivo at 100 mg/kg [4, 13]: 46%

c1ccc(COC2CNCc3ccsc32)cc1 (stereo not shown) [Derivative 4, 7-Benzyloxy-4,5,6,7-tetrahydro-thieno[3,2-c]-pyridine]
LD50 at 24 h [1]: 95 mg/kg
inhibition in vivo at 100 mg/kg [2, 5]: 42%
inhibition in vivo at 100 mg/kg [2, 6]: 50%
inhibition in vivo at 100 mg/kg [2, 7]: 60%
inhibition in vivo at 100 mg/kg [3, 8]: 53%
inhibition in vivo at 100 mg/kg [3, 9]: 64%
inhibition in vivo at 100 mg/kg [4, 10]: 75%
inhibition in vivo at 100 mg/kg [4, 11]: 69%
inhibition in vivo at 100 mg/kg [4, 12]: 66%
inhibition in vivo at 100 mg/kg [4, 13]: 57%

COC1(C)c2sccc2CNC1C (stereo not shown) [Derivative 9, 6,7-Dimethyl-7-methoxy-4,5,6,7-tetrahydro-thieno[3,2-c]-pyridine]
LD50 at 24 h [1]: 175 mg/kg
inhibition in vivo at 100 mg/kg [2, 5]: 44%
inhibition in vivo at 100 mg/kg [2, 6]: 52%
inhibition in vivo at 100 mg/kg [2, 7]: 62%
inhibition in vivo at 100 mg/kg [3, 8]: 50%
inhibition in vivo at 100 mg/kg [3, 9]: 63%
inhibition in vivo at 100 mg/kg [4, 10]: 68%
inhibition in vivo at 100 mg/kg [4, 11]: 63%
inhibition in vivo at 100 mg/kg [4, 12]: 56%
inhibition in vivo at 100 mg/kg [4, 13]: 49%
